The text below walks through data of US20160077081A1, “METHOD FOR A CELL-BASED DRUG SCREENING ASSAY AND THE USE THEREOF” (QGEL SA, priority 2013, published 2016).

Experiment [1] has as its system Colon cancer HCT 116 cells. Nature of the experiment: Alamar Blue metabolic readout on colonies of HCT 116 cells in a three-dimensional matrix, early-/late-stage treatment schedule. The format is cell-based. The following applies: for Hit in drug screening (metabolic readout, Alamar Blue): 10 μM. As for the experimental part:
An example is given comprising an “early-” and a “late-stage” drug treatment for cells grown in three-dimensional matrices. Conditions of different cancer stages are identified, derived from profiling assays, as in FIG. 1, and schedules for drug screening are determined accordingly. Here, different cancer stages for cells cultured in three-dimensional matrices are determined as “early-” and “late-stage” cancer treatment.
The “early-stage” comprises two time points for readout. The first point of time at day seven is at the end of the drug treatment, whereas the second point in time at day eleven follows a drug-free recovery phase. The “late-stage” comprises two time points for readout. The first point in time at day seventeen is at the end of a second (independent from “early-stage”) drug treatment phase. The second point in time at day twenty-one follows a drug-free recovery phase. Measurements at additional points in time can be performed before the start of treatment and/or after different drug-free recovery phases.
In contrary, the “late-stage” illustrates existence of larger spheroids with a diameter of 155 μm, low cell proliferation (shown in FIG. 9), and presence of hypoxic condition (FIG. 1C). In both cases, the readouts are performed immediately after treatment end to test immediate drug efficacy, and after a four-day drug-free period to test recurrence of “mini-tumour” growth and/or retarded drug effects as the case observed with Gemcitabine (FIG. 10).
As an example for “Hit” generation a selection of drugs from a commercially available drug library (Prestwick) is used. In A) the effect of sixty drugs on cancer cells measured by metabolic readout (Alamar Blue®) is shown. […]
In FIG. 4 the determination of the half maximal inhibitory concentration (IC50) as an Alamar Blue® readout of selected “Hits” in FIG. 2, example 5-Fluorouracil (5-FU), on colonies of Colon cancer HCT 116 cells is shown. The readout was performed immediately after “early-” and “late-stage” treatments of cells in a three-dimensional matrix. […]
In general terms: Alamar Blue is a resazurin reagent that responds to reducing activity.

Experiment [2] concerns Colon cancer HCT 116 cells. Nature of the experiment: Image-based analysis of cancer cell spheroid size in a three-dimensional matrix after early-/late-stage treatment. The following applies: early-stage treatment, IC50 and 1 mM. As for the experimental part:
In FIG. 3B an image-based analysis quantifying the distribution of diameter sizes of cell colonies, specifically cancer spheroids measured immediately after “early-” and “late-stage” treatment is shown as an example of a selection of drugs from FIG. 3 A at a drug concentration of 10 μM. Filled curves correspond to “hits” and unfilled curves are “no Hits” as determined using metabolic readouts at the ends of “early stage” and “late-stage” (Positive control: Cells treated with copper sulphate; negative control; Cells treated with DMSO).
In FIG. 4 the determination of the half maximal inhibitory concentration (IC50) as an Alamar Blue® readout of selected “Hits” in FIG. 2, example 5-Fluorouracil (5-FU), on colonies of Colon cancer HCT 116 cells is shown. The readout was performed immediately after “early-” and “late-stage” treatments of cells in a three-dimensional matrix. […] The IC50 curves obtained with two-dimensional reference assays are often similar to “early-stage” treatment conditions of the present invention (three-dimensional). This is also shown in the drug screening correlation of most “Hits” observed with the two assay methods in FIG. 3 A (upper panel). In FIG. 4 B an image-based analysis of cancer cell spheroids grown in a three-dimensional matrix after “early-” and “late-stage” treatment at selected drug concentrations, IC50 and 1 mM, are shown.

The subject of experiment [3] is Pancreatic Panc-1 cancer cells. Nature of the experiment: Alamar Blue readout on Panc-1 cells in three-dimensional matrices, late-stage treatment with or without drug-free recovery. The format is cell-based. From the text: The “early-stage” comprises two time points for readout. The first point of time at day seven is at the end of the drug treatment, whereas the second point in time at day eleven follows a drug-free recovery phase. The “late-stage” comprises two time points for readout. The first point in time at day seventeen is at the end of a second (independent from “early-stage”) drug treatment phase. The second point in time at day twenty-one follows a drug-free recovery phase. Measurements at additional points in time can be performed before the start of treatment and/or after different drug-free recovery phases. […] The dose-dependant efficacy profiles for “late-stage” treatment with Gemcitabine on pancreatic cancer cells culture in three-dimensional matrices were measured according to Alamar Blue® readout before and after the drug-free recovery period of four to seven, days.

Experiment [4] concerns Pancreatic Panc-1 cancer cells. Nature of the experiment: Two-dimensional reference assay on pancreatic cancer cells. The format is cell-based. As for the experimental part:
For reference two-dimensional assays, cells are normally tested with drugs within the logarithmic proliferations phase between day one to four (FIG. 9). […] The dose-dependant efficacy profiles for “late-stage” treatment with Gemcitabine on pancreatic cancer cells culture in three-dimensional matrices were measured according to Alamar Blue® readout before and after the drug-free recovery period of four to seven, days.

Turning to `O=c1[nH]cc(F)c(=O)[nH]1` [5-FU, 5-Fluorouracil], the “Hit in drug screening (metabolic readout, Alamar Blue)” value in experiment [1] (triplicate, selected Hit of the screening campaign, stage not stated) was “Hits”; in experiment [1] (late-stage treatment, three-dimensional matrix), “no Hit”. In experiment [1] (late-stage versus early-stage treatment, readout immediately after treatment, three-dimensional matrix), the “Potency (IC50 shift) from early to late treatment” value is given as “less potent”. In addition, in experiment [2], the “Inhibition of spheroid growth” value is listed as “strong inhibition”.

In the case of `Nc1ccn([C@@H]2O[C@H](CO)[C@@H](O)C2(F)F)c(=O)n1` [Gemcitabine], the “Cell growth inhibition (dose-dependent efficacy, Alamar Blue)” value in experiment [3] (measured after drug-free recovery period of four to seven days) was “potent cell growth inhibitor”. Besides, the “Activity (dose-dependent efficacy, Alamar Blue)” value in experiment [3] (measured immediately after the treatment) is “not shown to be active”. Besides, the “Activity (dose-dependent efficacy)” value in experiment [4] is listed as “not shown to be active”.
